Where a SMILES comes first, the peptide text is derived from it. [ ]: non-standard residue; d: D form. The star is where a group is joined. Met(O2) = CS(=O)(=O)CC[C@H](N)C(=O)O; Palmitoyl = CCCCCCCCCCCCCCCC(=O)*; Ava = NCCCCC(=O)O
Key:
[1] = system: dermal NHF; assay: Immunostaining method on dermal NHF: collagen I (Table 7, Test 2); type: cell-based, human; details: % difference compared to the control
Excerpt: Table 7 showing % differences in collagen I in the dermis compared to the control for dioxygenated peptide compounds according to the immunostaining method or to ELISA test on dermal NHF

[2] = system: normal human dermal fibroblasts (NHF); assay: ELISA test on normal human dermal fibroblasts (NHF): macromolecules in culture supernatant; type: cell-based; details: % difference compared to the control; for Collagen I in the dermis Test 1: Table 7; for Fibronectin: dermal NHF; for Collagen I in the dermis: 3 days contact
Experimental: > ELISA test on normal human dermal fibroblasts (NHF)
This test examines the dermal molecules.
Normal human dermal fibroblasts are cultured in multi-well plates. The cells either are or are not placed in contact with the test substances for 3 days. The culture supernatants are removed and the quantity of macromolecules present (collagen I, fibronectin, collagen IV and hyaluronic acid) is assayed by ELISA.

Structure (SMILES) | Collagen I in the dermis Test 2 ([1]; 2 ppm) | Collagen I in the dermis Test 2 ([1]; 4 ppm) | Collagen I in the dermis Test 2 ([1]; 6 ppm) | Collagen I in the dermis Test 1 ([2]; 4 ppm) | Collagen I in the dermis Test 1 ([2]; 6 ppm) | also measured
CCCCCCCCCCCCCCCC(=O)NCCCCC(=O)N[C@@H](CCS(C)(=O)=O)C(N)=O [Pal-Ava-MO2-NH2] | +495% | +667% | +557% |  |  | 
CCCCCCCCCCCCCCCC(=O)N[C@@H](CCCCN)C(=O)NCCCCC(=O)N[C@@H](CCCCN)C(=O)O [Pal-K-Ava-K-OH, reference compound] |  |  |  | +116% | +175% | 
CCCCCCCCCCCCCCCC(=O)N[C@@H](CCCCN)C(=O)NCCCCC(=O)N[C@@H](CCS(C)(=O)=O)C(=O)N[C@@H](CCCCN)C(=O)O [Pal-K-Ava-MO2-K-OH] (Palmitoyl-K[Ava][Met(O2)]K-OH) |  |  |  | +167% |  | Collagen I in the dermis Test 1 ([2]; 2 ppm): +63%
CCCCCCCCCCCCCCCC(=O)N[C@@H](CCCCN)C(=O)N[C@@H](Cc1ccccc1)C(=O)N[C@@H](CCS(C)(=O)=O)C(=O)N[C@@H](CCCCN)C(=O)O [Pal-K-F-MO2-K-OH] (Palmitoyl-KF[Met(O2)]K-OH) |  |  |  | +80% | +81% | 
CCCCCCCCCCCCCCCC(=O)N[C@@H](CCCCN)C(=O)N[C@@H](CCS(C)(=O)=O)C(=O)NCCCCC(=O)N[C@@H](CCCCN)C(=O)O [Pal-K-MO2-Ava-K-OH] (Palmitoyl-K[Met(O2)][Ava]K-OH) |  |  |  |  |  | Collagen I in the dermis Test 1 ([2]; 2 ppm): +75%
CCCCCCCCCCCCCCCC(=O)N[C@@H](CCCCN)C(=O)N[C@@H](CCS(C)(=O)=O)C(=O)N[C@@H](Cc1ccccc1)C(=O)N[C@@H](CCCCN)C(=O)O [Pal-K-MO2-F-K-OH] (Palmitoyl-K[Met(O2)]FK-OH) |  |  |  | +91% |  | 
CCCCCCCCCCCCCCCC(=O)N[C@@H](CCCCN)C(=O)N[C@@H](CCS(C)(=O)=O)C(=O)N[C@H](C(=O)N[C@@H](CCCCN)C(=O)O)[C@@H](C)O [Pal-K-MO2-T-K-OH] (Palmitoyl-K[Met(O2)]TK-OH) |  | +192% | +217% | +45% | +194% | 
CCCCCCCCCCCCCCCC(=O)N[C@@H](CCCCN)C(=O)N[C@H](C(=O)N[C@@H](Cc1ccccc1)C(=O)N[C@@H](CCCCN)C(=O)O)[C@@H](C)O [Pal-K-T-F-K-OH, reference compound] (Palmitoyl-KTFK-OH) |  |  |  | +82% | +103% | 
CCCCCCCCCCCCCCCC(=O)N[C@@H](CCCCN)C(=O)N[C@H](C(=O)N[C@@H](Cc1ccccc1)C(=O)N[C@@H](CCS(C)(=O)=O)C(N)=O)[C@@H](C)O [Pal-K-T-F-MO2-NH2] (Palmitoyl-KTF[Met(O2)]-NH2) | +267% | +420% | +400% | +106% | +121% | 
CCCCCCCCCCCCCCCC(=O)N[C@@H](CCCCN)C(=O)N[C@H](C(=O)N[C@@H](CCS(C)(=O)=O)C(=O)N[C@@H](CCCCN)C(=O)O)[C@@H](C)O [Pal-K-T-MO2-K-OH] (Palmitoyl-KT[Met(O2)]K-OH) | +273% | +341% | +262% | +75% | +161% | 
CCCCCCCCCCCCCCCC(=O)N[C@@H](CCCCN)C(=O)N[C@@H](C)C(=O)N[C@@H](CCCCN)C(=O)O [Pal-KAK-OH, reference compound] (Palmitoyl-Lys-Ala-Lys-OH) |  |  |  |  |  | Coll. I ([2]; 4 ppm peptide): +42%; Coll. IV ([2]; 4 ppm peptide): -6%; Fibronectin ([2]; 4 ppm peptide): +33%
CCCCCCCCCCCCCCCC(=O)N[C@@H](CCCCN)C(=O)N[C@@H](CS)C(=O)N[C@@H](CCCCN)C(=O)O [Pal-KCK-OH] (Palmitoyl-Lys-Cys-Lys-OH) |  |  |  |  |  | Coll. I ([2]; 4 ppm peptide): +145%; Coll. IV ([2]; 4 ppm peptide): -1%; Collagen I in the dermis ([2]; 4 ppm peptide): +145%; Coll. I ([2]; 6 ppm peptide): +133%; Coll. IV ([2]; 6 ppm peptide): +23%; Collagen I in the dermis ([2]; 6 ppm peptide): +133%; Fibronectin ([2]; 4 ppm peptide): +57%; Fibronectin ([2]; 6 ppm peptide): +70%
CCCCCCCCCCCCCCCC(=O)N[C@@H](CCCCN)C(=O)N[C@@H](CCSC)C(=O)N[C@@H](CCCCN)C(=O)O [Pal-KMK-OH] (Palmitoyl-Lys-Met-Lys-OH) |  |  |  | +21% | +63% | Collagen I in the dermis ([2]; 4 ppm peptide): +21%; Collagen I in the dermis ([2]; 8 ppm peptide): +64%
CCCCCCCCCCCCCCCC(=O)N[C@@H](CCCCN)C(=O)N[C@@H](CC(N)=O)C(=O)N[C@@H](CCCCN)C(=O)O [Pal-KNK-OH] (Palmitoyl-Lys-Asn-Lys-OH) |  |  |  |  |  | Collagen I in the dermis ([2]; 5 ppm peptide): +55%
CCCCCCCCCCCCCCCC(=O)N[C@@H](CCCCN)C(=O)N[C@@H](CCC(N)=O)C(=O)N[C@@H](CCCCN)C(=O)O [Pal-KQK-OH] |  |  |  |  |  | Coll. I ([2]; 5 ppm peptide): +82%; Fibronectin ([2]; 5 ppm peptide): +35%
CCCCCCCCCCCCCCCC(=O)N[C@@H](CCCCN)C(=O)N[C@@H](CO)C(=O)N[C@@H](CCCCN)C(=O)O [Pal-KSK-OH, reference compound] (Palmitoyl-Lys-Ser-Lys-OH) |  |  |  |  |  | Coll. I ([2]; 4 ppm peptide): +46%; Coll. IV ([2]; 4 ppm peptide): +1%; Fibronectin ([2]; 4 ppm peptide): +26%
CCCCCCCCCCCCCCCC(=O)N[C@@H](CCS(C)(=O)=O)C(=O)NCCCCC(N)=O [Pal-MO2-Ava-NH2] | +375% | +582% | +461% |  |  | 
CCCCCCCCCCCCCCCC(=O)N[C@@H](CCS(C)(=O)=O)C(=O)N[C@@H](CCCCN)C(=O)O [Pal-MO2-K-OH] (Palmitoyl-[Met(O2)]-Lys-OH) | +270% | +457% | +226% |  |  | 
CCCCCCCCCCCCCCCC(=O)N[C@@H](CCS(C)(=O)=O)C(=O)N[C@H](C(=O)N[C@@H](Cc1ccccc1)C(=O)N[C@@H](CCCCN)C(=O)O)[C@@H](C)O [Pal-MO2-T-F-K-OH] (Palmitoyl-[Met(O2)]TFK-OH) | +218% | +456% | +520% | +111% | +148% | 

From patent publication EP3744729B1, “PEPTIDES, COMPOSITIONS COMPRISING THEM AND COSMETIC AND DERMOPHARMACEUTICAL USES” (SEDERMA, priority 2009, dated 2023)
